{"source": "patent US12486255B2", "about": "“Modulators of RAS GTPase” (Tosk, Inc., priority 2018, dated 2025)", "key": {"[1]": {"system": "SW48 cells", "assay": "Cytotoxicity assay, CellTiter-Glo 2.0, SW48 cells", "format": "cell-based", "details": "SW48, human colon cancer cell line expressing wild type kRAS (EGF receptor mutation); 48 hours", "protocol": "(§1) FIG. 3, panels A-B, illustrates the cytotoxicity of Structure 2 and Structure 3 on SW48 cells. The cytotoxicity of compounds of interest were tested against the human colon cancer cell line SW48 as described in the experimental section. SW48 cells express the wild type kRAS but are driven by an EGF receptor mutation G1255A. Compounds were incubated with cells for 48 hours and the assay was developed using Cell Titer Glo 2.0. IC50 vales were determined using GraphPad Prism 4.\n(§2) Compounds were assayed for inhibition of cell proliferation and killing cancer cells. Cytotoxicity assays were conducted according to the following general procedure. SW480, SW48, SW900, SW620 were all maintained in Leibowitz L15 media supplemented with 10% fetal bovine serum and 1% PenStrep and grown in a 37° C. incubator without supplemental CO2. Capan-1 cells were maintained in Iscove's Modified Dulbecco's Medium (ATCC 30-2005) containing 20% fetal bovine serum and 1% PenStrep and grown in a 37° C. incubator containing 5% CO2.\n(§3) For dose-response assays, SW480 cells were plated into 96 well plates (1 million/plate, ˜10,000/well, 250 μL media/well). Cells were allowed to settle and adhere to plate bottom overnight Compounds were placed in 500 μL media and mixed. […] Luminescence was read with FLx800 (BioTek Instruments)."}, "[2]": {"system": "Capan-1 cells", "assay": "Cytotoxicity assay, CellTiter-Glo 2.0, Capan-1 cells", "format": "cell-based", "details": "Capan 1, human pancreatic cancer cell line expressing kRAS G12V; 48 hours", "protocol": "as §1, with “5,” for “3,”, “Capan-1” for “SW48”, “pancreatic” for “colon”, “a mutant G12V kRAS.” for “the wild type kRAS but are driven by an EGF receptor mutation G1255A.”\nas §2\nas §3, with “mixed. Then 250 μL compounds+media was placed in an intermediate plate in row A. Rows B through H were filled with 125 μL media.” for “mixed.”"}, "[3]": {"system": "cardiomyocyte cell line H9C2", "assay": "Cytotoxicity assay, H9C2 cells", "format": "cell-based", "details": "rat cardiomyocyte cell line H9C2"}, "[4]": {"system": "H322", "assay": "Cytotoxicity assay, H322 cells", "format": "cell-based", "details": "H322, human lung cancer cell line expressing wild type kRAS", "protocol": "as §2"}, "[5]": {"system": "HT29", "assay": "Cytotoxicity assay, HT29 cells", "format": "cell-based", "details": "human colon cancer cell line HT29", "protocol": "as §2"}, "[6]": {"system": "HT-1080 cells", "assay": "Cell morphology assay", "format": "cell-based, human", "details": "24 hours, 1.2-100 μM, Alexa Fluor 488 Phalloidin", "protocol": "FIG. 7, panels A-F, illustrate the effect of an exemplary compound of Structure 2 on the HT-1080 cells in a cell morphology assay. Effect of Structure 2 on the HT-1080 cells in cell morphology assay. HT1080 cells were seeded in 6-well plates at 300,000 per plate, incubated overnight and various amounts of Structure 2 (compound 1) in the DMSO vehicle or vehicle control added. After 24 hours, cells were washed, fixed with formaldehyde, stained with Alexa Fluor 488 Phalloidin and imaged using a fluorescence microscope. […]\nAn assay was performed (see e.g., Kato-Stankiewicz et al., Inhibitors of RAS/Raf-1 interaction identified by two-hybrid screening revert RAS-dependent transformation phenotypes in human cancer cells. Proc Natl Acad Sci USA. 2002; 99: 14398-403) to evaluate the ability of an inhibitor to dampen the RAS/RAF/MEK/ERK pathway and provide a reversion of cell appearance from a rounded to a flat, elongated morphology (Paterson et al., Activated nRAS controls the transformed phenotype of HT1080 human fibrosarcoma cells. Cell. 1987 Dec. 4; 51 (5):803-12). […] Cells were then washed 2 times with PBS and imaged using a Zeiss Axiovert 25 fluorescence microscope."}, "[7]": {"assay": "Pharmacokinetic study in mice", "format": "in vivo", "details": "ip, 3 mg/kg, CD-1 mice, 3 mg/kg", "protocol": "Pharmacokinetic studies were carried out using 10 weeks old CD-1 mice. Structure 2 and Structure 3 were injected ip, 3 mg/kg and 10 mg/kg, respectively, at 8 time points (0, 0.25, 0.5, 1, 2, 4, 8 and 24 hours post-dose). Blood was collected from 3 animals/time point and concentrations of Structure 2 in plasma determined using LC/MS."}}, "data": [{"smiles": "Cc1nc(-c2ccc(CNC(=O)c3cc(CC(C)C)nn3C)cc2)no1", "note": "[Structure 2, 3-isobutyl-1-methyl-N-(4-(5-methyl-1,2,4-oxadiazol-3-yl)benzyl)-1H-pyrazole-5-carboxamide]", "values": [{"measurement": "IC50", "setting": "[1]", "value": 0.607, "unit": "µM"}, {"measurement": "IC50", "setting": "[2]", "value": 1.3, "unit": "µM"}, {"measurement": "not cytotoxic at concentrations up to", "setting": "[3]", "value": "> 40", "unit": "µM"}, {"measurement": "not cytotoxic at concentrations up to", "setting": "[4]", "value": "> 200", "unit": "µM"}, {"measurement": "not cytotoxic at concentrations up to", "setting": "[5]", "value": "> 40", "unit": "µM"}, {"measurement": "reversion of cell phenotype (morphology)", "setting": "[6]", "value": "produced reversion of cell phenotype from the rounded to the flatter more elongated morphology"}, {"measurement": "Vd/F", "setting": "[7]; CD-1, mouse, plasma, plasma, read-out: Vz/F", "value": 0.532, "unit": "L/kg"}, {"measurement": "mean resident times (MRT)", "setting": "[7]", "value": "approximately one to two"}, {"measurement": "AUCINF", "setting": "[7]; plasma", "value": "10.92 (Microgram * Hour)/mL"}, {"measurement": "AUC_%Extrap", "setting": "[7]; plasma", "value": 1.92, "unit": "%"}, {"measurement": "AUClast", "setting": "[7]; plasma", "value": "10.71 (Microgram * Hour)/mL"}, {"measurement": "CI/F", "setting": "[7]; plasma", "value": 4.58, "unit": "mL/min/kg"}, {"measurement": "Concentrationmax", "setting": "[7]; plasma", "value": 5.74, "unit": "Microgram/mL"}, {"measurement": "Lambda_z", "setting": "[7]; plasma", "value": 0.53, "unit": "h⁻¹"}, {"measurement": "MRTINF", "setting": "[7]; plasma", "value": 2.15, "unit": "h"}, {"measurement": "MRTlast", "setting": "[7]; plasma", "value": 2.00, "unit": "h"}, {"measurement": "Timelast", "setting": "[7]; plasma", "value": 8.00, "unit": "h"}, {"measurement": "concentration at 8 Hour", "setting": "[7]; mouse, plasma, read-out: Concentrationlast", "value": 110, "unit": "ng/mL"}]}]}
